Columns and labels:
Candida albicans [1] = assay: Antimycotic activities of similar compounds in a manner similar to Test 1, oral administration (Referential Test); format: in vivo, Candida albicans (in male ICR mice); settings: in Mus musculus, 336 h, read-out: T/C; for response vs control in vivo at 40 mg: Dose (mg) 40, oral
Protocol: (§1) Male ICR mice of 4 weeks old were used as groups, each consisted of 5 mice. Each mouse was inoculated at caudal vein with 2.8×106^6 cells of Candida albicans. From one hour after the inoculation, each test compound was dissolved in 0.5 mλ of 0.06 N hydrochloric acid which had been added with "0.2% TO-10M" (trade name; product of Nikko Chemicals Co., Ltd.) and was orally administered once a day, four times in total. The mice were observed until the 14th day after the inoculation of the fungus. The average survival days of each group was compared with those of the control group to determine T/C (%). [formula]
In a manner similar to Test 1, antimycotic activities of each of the test compounds shown below in Table 2 were investigated. As will be readily envisaged from the results, practically no antimycotic activities were observed from the oral administration of those compounds.

Candida albicans [2] = assay: Antimycotic activities: survival of mice inoculated with Candida albicans, oral administration (Test 1); format: in vivo, Candida albicans (in male ICR mice); settings: for T/C: once a day, four times, average survival days vs control, to 14th day after inoculation
Protocol: as §1

[3] = Measurement of body weight variations (Test 2); format: in vivo, male ICR mice; settings: for body weight: 2.5 mg/Kg; for body weight change after administration (in words): group administered with the compound
Acute toxicity, oral = settings: mouse, in vivo, mice, P.O.

COc1c(F)cc(C(O)(Cn2cncn2)Cn2cncn2)cc1F
response vs control in vivo at 40 mg (Candida albicans [1]): 91%

OC(Cn1cncn1)(Cn1cncn1)c1ccc(C(F)(F)F)cc1 [Triazole compound (I), 1,3-bis(1,2,4-triazol-l-yl)-2-(4-trifluoromethylphenyl)propan-2-ol]
T/C (Candida albicans [2]; 1.25 mg/kg): 186% | T/C (Candida albicans [2]; 2.5 mg/kg): 385% | T/C (Candida albicans [2]; 5 mg/kg): 450% | apothanasia effects upon oral administration (in words) (Candida albicans [2]; compared with fluconazole): greater than fulconazole | body weight ([3]; 0 days after administration): 21.0 g | body weight ([3]; 1 day after administration): 20.6 g | body weight ([3]; 2 days after administration): 21.4 g | body weight ([3]; 3 days after administration): 22.2 g | body weight ([3]; 4 days after administration): 23.0 g | body weight ([3]; 5 days after administration): 23.3 g | body weight ([3]; 6 days after administration): 23.1 g | body weight change after administration (in words) [3]: the body weight increased steadily | LD50 (Acute toxicity, oral): 1200 mg/kg

OC(Cn1cncn1)(Cn1cncn1)c1ccc(-c2ccc(F)cc2)cc1
response vs control in vivo at 40 mg (Candida albicans [1]): 136%

Oc1cc(F)c(F)cc1C(O)(Cn1cncn1)Cn1cncn1
response vs control in vivo at 40 mg (Candida albicans [1]): 125%

N#Cc1ccc(C(O)(Cn2cncn2)Cn2cncn2)c(F)c1
response vs control in vivo at 40 mg (Candida albicans [1]): 81%

OC(Cn1cncn1)(Cn1cncn1)c1ccc(F)cc1OCc1ccc(F)cc1
response vs control in vivo at 40 mg (Candida albicans [1]): 117%

CC(=O)Nc1ccc(C(O)(Cn2cncn2)Cn2cncn2)c(F)c1
response vs control in vivo at 40 mg (Candida albicans [1]): 82%

OC(Cn1cncn1)(Cn1cncn1)c1cc(C(F)(F)F)cc(C(F)(F)F)c1
response vs control in vivo at 20 mg (Candida albicans [1]; Dose (mg) 20, oral): 118%

CCCOc1cc(F)ccc1C(O)(Cn1cncn1)Cn1cncn1
response vs control in vivo at 40 mg (Candida albicans [1]): 125%

Oc1c(F)cc(C(O)(Cn2cncn2)Cn2cncn2)cc1F
response vs control in vivo at 40 mg (Candida albicans [1]): 82%

OC(Cn1cncn1)(Cn1cncn1)c1ccc(F)cc1OCc1ccccc1
response vs control in vivo at 40 mg (Candida albicans [1]): 122%

OC(Cn1cncn1)(Cn1cncn1)c1ccc(F)cc1F [Fluconazole]
T/C (Candida albicans [2]; 1.25 mg/kg): 143% | T/C (Candida albicans [2]; 2.5 mg/kg): 379% | T/C (Candida albicans [2]; 5 mg/kg): 443% | body weight change after administration (in words) [3]: body weight reductions were observed

OC(Cn1cncn1)(Cn1cncn1)c1cc(F)c(OCc2ccccc2)c(F)c1
response vs control in vivo at 40 mg (Candida albicans [1]): 73%

Reference: patent US4987144A, “1,3-bis(1,2,4-triazol-1-yl)2-(4-trifluoromethylphenyl)propan-2-ol useful for the prevention and/or treatment of deep-seated mycosis” (SS Pharmaceutical Co., Ltd., priority 1989, dated 1991)
